From patent US10307426B2, “Therapeutic compounds and compositions, and methods of use thereof” (Genentech, Inc., priority 2018, dated 2019) come the findings set out here.

The structures appear in SMILES notation. Where two headings read alike, the source gives them in different places.

The test system of assay [1] is JAK1-dependent STAT6 phosphorylation downstream of IL-13 stimulation in BEAS-2B human bronchial epithelial cells. In words: JAK1 pathway assay in cell lines: IL-13 stimulated STAT6 phosphorylation in BEAS-2B cells (MSD). In kind it is cell-based. The following applies: 1 hr compound incubation, IL-13 stimulation 15 min, read-out: IL-13 p-STAT6 BEAS-2B IC50. As for the experimental part:
Inhibitor potency (EC50) was determined in cell-based assays designed to measure JAK1 dependent STAT phosphorylation. As noted above, inhibition of IL-4, IL-13, and IL-9 signaling by blocking the Jak/Stat signaling pathway can alleviate asthmatic symptoms in pre-clinical lung inflammation models (Mathew et al., 2001, J Exp Med 193(9): 1087-1096; Kudlacz et. al., 2008, Eur J. Pharmacol 582(1-3): 154-161).
In one assay approach, TF-1 human erythroleukemia cells obtained from the American Type Culture Collection (ATCC; Manassas, Va.) were used to measure JAK1-dependent STAT6 phosphorylation downstream of IL-13 stimulation. Prior to use in the assays, TF-1 cells were starved of GM-CSF overnight in OptiMEM medium (Life Technologies, Grand Island, N.Y.) supplemented with 0.5% charcoal/dextran stripped fetal bovine serum (FBS), 0.1 mM non-essential amino acids (NEAA), and 1 mM sodium pyruvate. The assays were run in 384-well plates in serum-free OptiMEM medium using 300,000 cells per well. In a second assay approach, BEAS-2B human bronchial epithelial cells obtained from ATCC were plated at 100,000 cells per well of a 96-well plate one day prior to the experiment. The BEAS-2B assay was run in complete growth medium (bronchial epithelial basal medium plus bulletkit; Lonza; Basel, Switzerland).
Test compounds were serially diluted 1:2 in DMSO and then diluted 1:50 in medium just before use. Diluted compounds were added to the cells, for a final DMSO concentration of 0.2%, and incubated for 30 min (for the TF-1 assay) or 1 hr (for the BEAS-2B assay) at 37° C. Then, cells were stimulated with human recombinant cytokine at their respective EC90 concentrations, as previously determined for each individual lot. Cells were stimulated with IL-13 (R&D Systems, Minneapolis, Minn.) for 15 min at 37° C. The TF-1 cell reactions were stopped by the direct addition of 10× lysis buffer (Cell Signaling Technologies, Danvers, Mass.), whereas the BEAS-2B cell incubations were halted by the removal of medium and addition of 1× lysis buffer. The resultant samples were frozen in the plates at −80° C. Compound mediated inhibition of STAT6 phosphorylation was measured in the cell lysates using MesoScale Discovery (MSD) technology (Gaithersburg, Md.). EC50 values were determined as the concentration of compound required for 50% inhibition of STAT phosphorylation relative to that measured for the DMSO control.

In assay [2] the target is isolated recombinant JAK2 kinase domain (Homo sapiens (Human), UniProt O60674). As to the kind of experiment: JAK2 enzyme assay (Caliper LabChip, peptide phosphorylation, Ki). It is filed as biochemical. The following applies: 0.2 nM JAK2, ATP 25 μM, Morrison tight binding model. As for the experimental part: (§1) The activity of the isolated recombinant JAK1 and JAK2 kinase domain was measured by monitoring phosphorylation of a peptide derived from JAK3 (Val-Ala-Leu-Val-Asp-Gly-Tyr-Phe-Arg-Leu-Thr-Thr, fluorescently labeled on the N-terminus with 5-carboxyfluorescein) using the Caliper LabChip® technology (Caliper Life Sciences, Hopkinton, Mass.). […] Reactions were incubated at 22° C. in 384-well polypropylene microtiter plates for 30 minutes and then stopped by addition of 25 μL of an EDTA containing solution (100 mM HEPES buffer (pH 7.2), 0.015% Brij-35, 150 mM EDTA), resulting in a final EDTA concentration of 50 mM. After termination of the kinase reaction, the proportion of phosphorylated product was determined as a fraction of total peptide substrate using the Caliper LabChip® 3000 according to the manufacturer's specifications. Ki values were then determined using the Morrison tight binding model (Morrison, J. F., Biochim. Biophys. Acta. 185:269-296 (1969); William, J. W. and Morrison, J. F., Meth. Enzymol., 63:437-467 (1979)) modified for ATP-competitive inhibition [Ki=Ki,app/(1+[ATP]/Km,app)].

Assay [3] addresses isolated recombinant JAK1 kinase domain (Homo sapiens (Human), UniProt P23458). In words: JAK1 enzyme assay (Caliper LabChip, peptide phosphorylation, Ki). It is filed as biochemical. The following applies: 1.5 nM JAK1, ATP 25 μM, Morrison tight binding model. How it is done:
as §1

isolated recombinant JAK2 kinase domain, sequence (O60674 849-1124): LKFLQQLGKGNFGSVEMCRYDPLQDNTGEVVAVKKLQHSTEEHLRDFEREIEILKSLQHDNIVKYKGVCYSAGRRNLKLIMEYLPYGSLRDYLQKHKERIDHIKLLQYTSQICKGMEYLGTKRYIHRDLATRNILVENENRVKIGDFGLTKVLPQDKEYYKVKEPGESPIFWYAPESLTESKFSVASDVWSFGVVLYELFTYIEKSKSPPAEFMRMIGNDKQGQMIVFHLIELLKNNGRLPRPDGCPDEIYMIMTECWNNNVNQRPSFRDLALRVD
isolated recombinant JAK1 kinase domain, sequence (P23458 875-1153): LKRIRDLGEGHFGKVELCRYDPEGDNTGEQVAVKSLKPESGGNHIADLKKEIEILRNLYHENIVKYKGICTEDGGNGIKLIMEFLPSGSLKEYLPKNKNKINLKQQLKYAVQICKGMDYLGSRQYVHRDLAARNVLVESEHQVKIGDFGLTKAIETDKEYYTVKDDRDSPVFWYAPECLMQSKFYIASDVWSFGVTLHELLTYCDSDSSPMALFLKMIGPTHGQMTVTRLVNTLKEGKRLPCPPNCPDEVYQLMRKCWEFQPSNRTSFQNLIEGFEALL

The IC50 is the concentration that inhibits the measured activity by half. A word on the Ki: it is the equilibrium dissociation constant of an inhibitor or competing ligand from its target. As for `CN(C)C(=O)Cn1cc(NC(=O)c2cnn3cccnc23)c(-c2cc(C(F)CF)ccc2OC(F)F)n1` (single isomer, unassigned) [Example 4], the IC50 in assay [1] was found to be 83.8 nM. For the same molecule, the Ki in assay [2] turned out to be 3.26 nM; in assay [3] it was 5.84 nM.
The matching figures for `CN(C)C(=O)Cn1cc(NC(=O)c2cnn3cccnc23)c(-c2cc(C(F)CF)ccc2OC(F)F)n1` (single isomer, unassigned) [Example 5]: 6.7 nM, 0.38 nM and 0.17 nM.
The matching figures for `CC(C(=O)N(C)C)n1cc(NC(=O)c2cnn3cccnc23)c(-c2cc(Cl)ccc2OC(F)F)n1` (single isomer, unassigned) [Example 10]: 16.6 nM, 0.83 nM and 0.41 nM.
For `CC(C(=O)N(C)C)n1cc(NC(=O)c2cnn3cccnc23)c(-c2cc(Cl)ccc2OC(F)F)n1` (single isomer, unassigned) [Example 11], the IC50 in assay [1] turned out to be 41.8 nM. The values for the Ki in assay [2] and in assay [3] were 1.26 nM and 0.58 nM, respectively.
On to `CN(C)C(=O)Cn1cc(NC(=O)c2cnn3cccnc23)c(-c2cc([C@@H]3C[C@H]3C#N)ccc2OC(F)F)n1` [Example 1, N-(3-(5-((1R,2R)-2-cyanocyclopropyl)-2-(difluoromethoxy)phenyl)-1-(2-(dimethylamino)-2-oxoethyl)-1H-pyrazol-4-yl)pyrazolo[1,5-a]pyrimidine-3-carboxamide], for which the IC50 in assay [1] (Homo sapiens, BEAS-2B) stood at 9.9 nM. Also, the figures for the inhibition constant (Ki) in assay [2] and in assay [3] were 0.61 nM and 0.25 nM, respectively.
For `CN(C)C(=O)Cn1cc(NC(=O)c2cnn3cccnc23)c(-c2cc(I)ccc2OC(F)F)n1` [Example 2, N-[3-[2-(difluoromethoxy)-5-iodophenyl]-1-[(dimethylcarbamoyl)methyl]-1H-pyrazol-4-yl]pyrazolo[1,5-a]pyrimidine-3-carboxamide], in that order: 6 nM, 0.17 nM and 0.25 nM.
For `CN(C)C(=O)Cn1cc(NC(=O)c2c(N)nn3cccnc23)c(-c2cc(Cl)ccc2OC(F)F)n1` [Example 3, 2-amino-N-(3-(5-chloro-2-(difluoromethoxy)phenyl)-1-(2-(dimethylamino)-2-oxoethyl)-1H-pyrazol-4-yl)pyrazolo[1,5-a]pyrimidine-3-carboxamide], in that order: 10.3 nM, 0.77 nM and 0.34 nM.
As for `CN(C)C(=O)Cn1cc(NC(=O)c2cnn3cccnc23)c(-c2cc(C(F)F)ccc2OC(F)F)n1` [Example 6, N-(3-(2-(difluoromethoxy)-5-(difluoromethyl)phenyl)-1-(2(dimethylamino)-2-oxoethyl)-1H-pyrazol-4-yl)pyrazolo[1,5-a]pyrimidine-3-carboxamide], the half-inhibitory concentration (IC50) in assay [1] (Homo sapiens, BEAS-2B) is 9.9 nM. In addition, the Ki in assay [2] stood at 0.25 nM; in assay [3], 0.15 nM.
The matching figures for `CN(C)C(=O)Cn1cc(NC(=O)c2cnn3cccnc23)c(-c2cc(CC(F)F)ccc2OC(F)F)n1` [Example 7, N-(3-(5-(2,2-difluoroethyl)-2-(difluoromethoxy)phenyl)-1-(2-(dimethylamino)-2-oxoethyl)-1H-pyrazol-4-yl)pyrazolo[1,5-a]pyrimidine-3-carboxamide]: 28.9 nM, 1.15 nM and 0.52 nM.
Consider `CN(C)C(=O)Cn1cc(NC(=O)c2cnn3cccnc23)c(-c2cc(Oc3ccc(C(=O)N(C)C)cc3)ccc2OC(F)F)n1` [Example 8, N-(3-(2-(difluoromethoxy)-5-(4-(dimethylcarbamoyl)phenoxy)phenyl)-1-(2-(dimethylamino)-2-oxoethyl)-1H-pyrazol-4-yl)pyrazolo[1,5-a]pyrimidine-3-carboxamide], for which the IC50 in assay [1] (Homo sapiens, BEAS-2B) turned out to be 43.9 nM. The Ki in assay [2] amounted to 1.81 nM; in assay [3] it was 0.83 nM.
For `CN(C)C(=O)Cn1cc(NC(=O)c2cnn3cccnc23)c(-c2cc(CCF)ccc2OC(F)F)n1` [Example 9, N-(3-(2-(difluoromethoxy)-5-(2-fluoroethyl)phenyl)-1-(2-(dimethylamino)-2-oxoethyl)-1H-pyrazol-4-yl)pyrazolo[1,5-a]pyrimidine-3-carboxamide], the IC50 in assay [1] (Homo sapiens, BEAS-2B) was found to be 269 nM. Moreover, the Ki in assay [2] is 1.92 nM; in assay [3], 0.97 nM.
For `CN(C)C(=O)Cn1cc(NC(=O)c2cnn3cccnc23)c(-c2cc(Oc3ccc4c(c3)CNCC4)ccc2OC(F)F)n1` [Example 12, N-(3-(2-(difluoromethoxy)-5-((1,2,3,4-tetrahydroisoquinolin-7-yl)oxy)phenyl)-1-(2-(dimethylamino)-2-oxoethyl)-1H-pyrazol-4-yl)pyrazolo[1,5-a]pyrimidine-3-carboxamide], in that order: 29.8 nM, 0.75 nM and 0.27 nM.
The matching figures for `C=Cc1ccc(OC(F)F)c(-c2nn(CC(=O)N(C)C)cc2NC(=O)c2cnn3cccnc23)c1` [Example 13, N-(3-(2-(difluoromethoxy)-5-vinylphenyl)-1-(2-(dimethylamino)-2-oxoethyl)-1H-pyrazol-4-yl)pyrazolo[1,5-a]pyrimidine-3-carboxamide]: 24.1 nM, 1.17 nM and 0.51 nM.
For `CN(C)C(=O)Cn1cc(NC(=O)c2cnn3cccnc23)c(-c2cc(C3CC3)ccc2OC(F)F)n1` [Example 14, N-(3-(5-cyclopropyl-2-(difluoromethoxy)phenyl)-1-(2-(dimethylamino)-2-oxoethyl)-1H-pyrazol-4-yl)pyrazolo[1,5-a]pyrimidine-3-carboxamide], in that order: 47.3 nM, 1.99 nM and 0.8 nM.
For the molecule `CN(C)C(=O)Cn1cc(NC(=O)c2cnn3cccnc23)c(-c2cc(Br)ccc2OC(F)F)n1` [Example 15, N-(3-(5-bromo-2-(difluoromethoxy)phenyl)-1-(2-(dimethylamino)-2-oxoethyl)-1H-pyrazol-4-yl)pyrazolo[1,5-a]pyrimidine-3-carboxamide], in assay [1] (Homo sapiens, BEAS-2B), the IC50 worked out at 14.3 nM. Also, the inhibitory constant (Ki) was 0.43 nM in assay [2] and 0.32 nM in assay [3].
For `CN(C)C(=O)Cn1cc(NC(=O)c2cnn3cccnc23)c(-c2cc(Cl)ccc2OC(F)F)n1` [Example 16, N-(3-(5-chloro-2-(difluoromethoxy)phenyl)-1-(2-(dimethylamino)-2-oxoethyl)-1H-pyrazol-4-yl)pyrazolo[1,5-a]pyrimidine-3-carboxamide], in that order: 33.4 nM, 1.02 nM and 0.65 nM.
On to `CN(C)C(=O)Cn1cc(NC(=O)c2cnn3cccnc23)c(-c2cc(OC(F)F)ccc2OC(F)F)n1` [Example 17, N-(3-(2,5-bis(difluoromethoxy)phenyl)-1-(2-(dimethylamino)-2-oxoethyl)-1H-pyrazol-4-yl)pyrazolo[1,5-a]pyrimidine-3-carboxamide], for which the IC50 in assay [1] (Homo sapiens, BEAS-2B) came out at 14.1 nM. Besides, the Ki came to 0.72 nM in assay [2] and 0.26 nM in assay [3].
The matching figures for `CN1CC(O)(c2cccc(Oc3ccc(OC(F)F)c(-c4nn(CC(=O)N(C)C)cc4NC(=O)c4cnn5cccnc45)c3)c2)C1` [Example 18, N-(3-(2-(difluoromethoxy)-5-(3-(3-hydroxy-1-methylazetidin-3-yl)phenoxy)phenyl)-1-(2-(dimethylamino)-2-oxoethyl)-1H-pyrazol-4-yl)pyrazolo[1,5-a]pyrimidine-3-carboxamide]: 285 nM, 1.56 nM and 3.18 nM.
